As a reminder, the pIC50 is the IC50 on a negative log10 scale, so that one unit is a factor of ten. Higher therefore signals a small IC50.

Drawing on PMC11929900 (Communications Chemistry, 2025), this text covers IC50 for 1 compound.

This assay has as its target h-cGAS (Homo sapiens, UniProt Q8N884). Kind of assay: cGAS Kinase-Glo inhibition biochemical assay.

Molecules are shown by their SMILES. pIC50: −log10 of the molar value.

h-cGAS, sequence (Q8N884 whole entry): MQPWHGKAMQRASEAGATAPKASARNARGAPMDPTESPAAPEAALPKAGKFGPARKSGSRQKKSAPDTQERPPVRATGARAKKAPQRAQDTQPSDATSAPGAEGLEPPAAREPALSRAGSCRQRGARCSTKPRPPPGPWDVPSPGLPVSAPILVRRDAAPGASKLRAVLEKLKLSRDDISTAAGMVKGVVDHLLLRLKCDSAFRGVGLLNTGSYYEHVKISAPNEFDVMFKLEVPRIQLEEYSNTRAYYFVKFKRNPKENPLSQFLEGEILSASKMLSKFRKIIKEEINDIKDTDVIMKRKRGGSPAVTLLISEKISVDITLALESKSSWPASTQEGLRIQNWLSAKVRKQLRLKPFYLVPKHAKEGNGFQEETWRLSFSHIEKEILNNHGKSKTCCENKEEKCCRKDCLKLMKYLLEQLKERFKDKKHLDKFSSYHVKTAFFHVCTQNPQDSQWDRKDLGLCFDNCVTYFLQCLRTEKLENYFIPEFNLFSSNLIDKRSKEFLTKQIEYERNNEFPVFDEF

As to `COCC(=O)N1CCc2[nH]c3c(Cl)c(Cl)ccc3c2C1(C)C` [Compound 3, 1-(6,7-dichloro-1,1-dimethyl-1,3,4,5-tetrahydro-2H-pyrido[4,3-b]indol-2-yl)-2-methoxyethan-1-one], the pIC50 was below 5.00.
